Patent publication US20250262201A1, “COMPOUNDS AND METHODS USEFUL FOR STABILIZING PHENYLALANINE HYDROXYLASE MUTATIONS” (Agios Pharmaceuticals, Inc., priority 2022, published 2025)
Counter-ions that a name gives are not always drawn.

Target: T1, human PAH with the R408W mutation (Homo sapiens, UniProt P00439, R408W)
T1 construct: expressed in transfected cells
T1 sequence (P00439 1-452 R408W): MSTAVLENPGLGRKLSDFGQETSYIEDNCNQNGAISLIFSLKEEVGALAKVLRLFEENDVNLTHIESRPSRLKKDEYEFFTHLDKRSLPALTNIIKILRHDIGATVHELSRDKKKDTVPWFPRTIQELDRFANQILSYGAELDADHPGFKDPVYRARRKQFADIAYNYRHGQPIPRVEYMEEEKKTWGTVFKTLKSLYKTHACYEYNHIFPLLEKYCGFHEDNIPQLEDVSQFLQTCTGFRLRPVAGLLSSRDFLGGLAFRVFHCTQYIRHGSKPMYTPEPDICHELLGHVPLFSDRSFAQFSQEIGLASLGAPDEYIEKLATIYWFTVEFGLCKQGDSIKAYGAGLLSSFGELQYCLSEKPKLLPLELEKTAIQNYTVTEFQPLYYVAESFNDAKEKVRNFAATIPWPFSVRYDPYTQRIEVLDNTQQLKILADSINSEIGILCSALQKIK
Assay: Cell Based Phenylalanine Flux Assay
Conditions: A375 cells expressing human R408W PAH; 24 hrs compound incubation; 13C-Tyrosine by LC-MS; average where tested multiple times; read-out: AC50

AC50	SMILES
< 500 nM	O=C(c1ocnc1-c1ccccn1)N1CCc2[nH]cnc2[C@H]1c1cc2ccccc2cn1 [Example 354, (R)-(4-(isoquinolin-3-yl)-6,7-dihydro-1H-imidazo[4,5-c]pyridin-5(4H)-yl)(4-(pyridin-2-yl)oxazol-5-yl)methanone]
< 500 nM	O=C(c1cnn2ccc(Br)cc12)N1CCc2[nH]cnc2[C@H]1c1cc2ccccc2cn1 [Example 356, (R)-(5-bromopyrazolo[1,5-a]pyridin-3-yl)(4-(isoquinolin-3-yl)-6,7-dihydro-1H-imidazo[4,5-c]pyridin-5(4H)-yl)methanone]
< 500 nM	O=C(c1nsc2ccccc12)N1CCc2[nH]cnc2[C@H]1c1cc2ccccc2cn1 [Example 358, (R)-benzo[d]isothiazol-3-yl(4-(isoquinolin-3-yl)-6,7-dihydro-1H-imidazo[4,5-c]pyridin-5(4H)-yl)methanone]
< 500 nM	O=C(c1n[nH]c2ccccc12)N1CCc2[nH]cnc2[C@H]1c1cc2ccccc2cn1 [Example 359, (3a,7a-dihydro-1H-indazol-3-yl)((R)-4-(isoquinolin-3-yl)-6,7-dihydro-1H-imidazo[4,5-c]pyridin-5(4H)-yl)methanone]
< 500 nM	CN(C)c1nnc(C(=O)N2CCc3[nH]cnc3[C@H]2c2cc3ccccc3cn2)o1 [Example 366, (R)-(5-(dimethylamino)-1,3,4-oxadiazol-2-yl)(4-(isoquinolin-3-yl)-6,7-dihydro-1H-imidazo[4,5-c]pyridin-5(4H)-yl)methanone]
> 5000 nM	CN(C)c1nnc(C(=O)N2CCc3[nH]cnc3[C@@H]2c2cc3ccccc3cn2)o1 [Example 367, (S)-(5-(dimethylamino)-1,3,4-oxadiazol-2-yl)(4-(isoquinolin-3-yl)-6,7-dihydro-1H-imidazo[4,5-c]pyridin-5(4H)-yl)methanone]
< 500 nM	O=C(Cc1ccccn1)N1CCc2[nH]cnc2[C@H]1c1cc2ccccc2cn1 [Example 374, (R)-1-(4-(isoquinolin-3-yl)-6,7-dihydro-1H-imidazo[4,5-c]pyridin-5(4H)-yl)-2-(pyridin-2-yl)ethanone]
< 500 nM	CC(F)(F)c1ncc(C(=O)N2CCc3[nH]cnc3[C@H]2c2cc3ccccc3cn2)s1 [Example 376, (R)-(2-(1,1-difluoroethyl)thiazol-5-yl)(4-(isoquinolin-3-yl)-6,7-dihydro-1H-imidazo[4,5-c]pyridin-5(4H)-yl)methanone hydrochloride]
< 500 nM	CC(C)(O)c1nc(C2CC2)c(C(=O)N2CCc3[nH]cnc3[C@H]2c2cc3ccccc3cn2)o1 [Example 378, (R)-(4-cyclopropyl-2-(2-hydroxypropan-2-yl)oxazol-5-yl)(4-(isoquinolin-3-yl)-6,7-dihydro-1H-imidazo[4,5-c]pyridin-5(4H)-yl)methanone]
1000 to 5000 nM	C[C@H]1CN(C(=O)c2cnc(-c3ccccn3)o2)[C@H](c2cc3ccccc3cn2)c2nc[nH]c21 [Example 381, ((4R,7S)-4-(isoquinolin-3-yl)-7-methyl-6,7-dihydro-1H-imidazo[4,5-c]pyridin-5(4H)-yl)(2-(pyridin-2-yl)oxazol-5-yl)methanone]
> 5000 nM	Cc1nc(C(C)(C)O)oc1C(=O)N1C[C@H](C)c2[nH]cnc2[C@@H]1c1cc2ccccc2cn1 [Example 390, (2-(2-hydroxypropan-2-yl)-4-methyloxazol-5-yl)((4S,7S)-4-(isoquinolin-3-yl)-7-methyl-6,7-dihydro-1H-imidazo[4,5-c]pyridin-5(4H)-yl)methanone]

More lines, now with the values behind:

SMILES	AC50
O=C(c1cnn2c(Br)cccc12)N1CCc2[nH]cnc2[C@H]1c1cc2ccccc2cn1 [Example 355, (R)-(7-bromopyrazolo[1,5-a]pyridin-3-yl)(4-(isoquinolin-3-yl)-6,7-dihydro-1H-imidazo[4,5-c]pyridin-5(4H)-yl)methanone]	< 500 nM
O=C(c1cnn2cccc(F)c12)N1CCc2[nH]cnc2[C@H]1c1cc2ccccc2cn1 [Example 357, (R)-(4-fluoropyrazolo[1,5-a]pyridin-3-yl)(4-(isoquinolin-3-yl)-6,7-dihydro-1H-imidazo[4,5-c]pyridin-5(4H)-yl)methanone]	< 500 nM
Cn1nc(C(=O)N2CCc3[nH]cnc3[C@H]2c2cc3ccccc3cn2)c2ccccc21 [Example 360, (R)-(4-(isoquinolin-3-yl)-6,7-dihydro-1H-imidazo[4,5-c]pyridin-5(4H)-yl)(1-methyl-1H-indazol-3-yl)methanone]	< 500 nM
Cc1nnc(C(=O)N2CCc3[nH]cnc3[C@H]2c2cc3ccccc3cn2)s1 [Example 361, (R)-(4-(isoquinolin-3-yl)-6,7-dihydro-1H-imidazo[4,5-c]pyridin-5(4H)-yl)(5-methyl-1,3,4-thiadiazol-2-yl)methanone]	500 to 1000 nM
O=C(c1ccn2ncccc12)N1CCc2[nH]cnc2[C@H]1c1cc2ccccc2cn1 [Example 362, (R)-(4-(isoquinolin-3-yl)-6,7-dihydro-1H-imidazo[4,5-c]pyridin-5(4H)-yl)(pyrrolo[1,2-b]pyridazin-5-yl)methanone]	< 500 nM
CN(C)C(=O)c1nnc(N2CCc3[nH]cnc3[C@H]2c2cc3ccccc3cn2)o1 [Example 363, (R)-5-(4-(isoquinolin-3-yl)-6,7-dihydro-1H-imidazo[4,5-c]pyridin-5(4H)-yl)-N,N-dimethyl-1,3,4-oxadiazole-2-carboxamide]	500 to 1000 nM
O=C(c1nnc(-c2ccccc2)s1)N1CCc2[nH]cnc2[C@H]1c1cc2ccccc2cn1 [Example 364, (R)-(4-(isoquinolin-3-yl)-6,7-dihydro-1H-imidazo[4,5-c]pyridin-5(4H)-yl)(5-phenyl-1,3,4-thiadiazol-2-yl)methanone]	< 500 nM
c1ccc(-c2nnc(N3CCc4[nH]cnc4[C@H]3c3cc4ccccc4cn3)o2)nc1 [Example 365, (R)-2-(4-(isoquinolin-3-yl)-6,7-dihydro-1H-imidazo[4,5-c]pyridin-5(4H)-yl)-5-(pyridin-2-yl)-1,3,4-oxadiazole]	500 to 1000 nM
O=C(Cc1nc(C(F)(F)F)cs1)N1CCc2[nH]cnc2[C@H]1c1cc2ccccc2cn1 [Example 368, (R)-1-(4-(isoquinolin-3-yl)-6,7-dihydro-1H-imidazo[4,5-c]pyridin-5(4H)-yl)-2-(4-(trifluoromethyl)thiazol-2-yl)ethanone]	< 500 nM
O=C(Cn1cncn1)N1CCc2[nH]cnc2[C@H]1c1cc2ccccc2cn1 [Example 369, (R)-1-(4-(isoquinolin-3-yl)-6,7-dihydro-1H-imidazo[4,5-c]pyridin-5(4H)-yl)-2-(1H-1,2,4-triazol-1-yl)ethanone]	500 to 1000 nM
O=C(c1nnc(NC2CC2)o1)N1CCc2[nH]cnc2[C@H]1c1cc2ccccc2cn1 [Example 370, (R)-(5-(cyclopropylamino)-1,3,4-oxadiazol-2-yl)(4-(isoquinolin-3-yl)-6,7-dihydro-1H-imidazo[4,5-c]pyridin-5(4H)-yl)methanone]	500 to 1000 nM
O=C(c1nnc(NC2CC2)o1)N1CCc2[nH]cnc2[C@@H]1c1cc2ccccc2cn1 [Example 371, (S)-(5-(cyclopropylamino)-1,3,4-oxadiazol-2-yl)(4-(isoquinolin-3-yl)-6,7-dihydro-1H-imidazo[4,5-c]pyridin-5(4H)-yl)methanone]	> 5000 nM
Cc1ncc(CC(=O)N2CCc3[nH]cnc3[C@H]2c2cc3ccccc3cn2)o1 [Example 372, (R)-1-(4-(isoquinolin-3-yl)-6,7-dihydro-1H-imidazo[4,5-c]pyridin-5(4H)-yl)-2-(2-methyloxazol-5-yl)ethanone]	< 500 nM
O=C(Cc1cncs1)N1CCc2[nH]cnc2[C@H]1c1cc2ccccc2cn1 [Example 373, (R)-1-(4-(isoquinolin-3-yl)-6,7-dihydro-1H-imidazo[4,5-c]pyridin-5(4H)-yl)-2-(thiazol-5-yl)ethanone]	< 500 nM
O=C(Cc1cnn2ccccc12)N1CCc2[nH]cnc2[C@H]1c1cc2ccccc2cn1 [Example 375, (R)-1-(4-(isoquinolin-3-yl)-6,7-dihydro-1H-imidazo[4,5-c]pyridin-5(4H)-yl)-2-(pyrazolo[1,5-a]pyridin-3-yl)ethanone]	< 500 nM
O=C(c1oc(-c2ccccn2)nc1C1CC1)N1CCc2[nH]cnc2[C@H]1c1cc2ccccc2cn1 [Example 377, (R)-(4-cyclopropyl-2-(pyridin-2-yl)oxazol-5-yl)(4-(isoquinolin-3-yl)-6,7-dihydro-1H-imidazo[4,5-c]pyridin-5(4H)-yl)methanone]	< 500 nM
C[C@H]1CN(C(=O)c2cnc(-c3ccccn3)o2)[C@@H](c2cc3ccccc3cn2)c2nc[nH]c21 [Example 382, ((4S,7S)-4-(isoquinolin-3-yl)-7-methyl-6,7-dihydro-1H-imidazo[4,5-c]pyridin-5(4H)-yl)(2-(pyridin-2-yl)oxazol-5-yl)methanone]	> 5000 nM
C[C@@H]1CN(C(=O)c2cnc(-c3ccccn3)o2)[C@H](c2cc3ccccc3cn2)c2nc[nH]c21 [Example 384, ((4R,7R)-4-(isoquinolin-3-yl)-7-methyl-6,7-dihydro-1H-imidazo[4,5-c]pyridin-5(4H)-yl)(2-(pyridin-2-yl)oxazol-5-yl)methanone]	1000 to 5000 nM
Cc1nc(C(C)(C)O)oc1C(=O)N1C[C@H](C)c2[nH]cnc2[C@H]1c1cc2ccccc2cn1 [Example 389, (2-(2-hydroxypropan-2-yl)-4-methyloxazol-5-yl)((4R,7S)-4-(isoquinolin-3-yl)-7-methyl-6,7-dihydro-1H-imidazo[4,5-c]pyridin-5(4H)-yl)methanone]	< 500 nM
